The values that follow come from patent US4857530A, “Substituted quinazolinones as anticancer agents” (Warner-Lambert Company, priority 1987, dated 1989).

Data set [1] addresses T1, Thymidylate synthase isolated from L1210 murine leukemia cells (Mus musculus, UniProt P07607).
T1 construct: endogenous in cells
Description: inhibition of thymidylate synthase (tritium release assay). The data set is classed as biochemical. Particulars: 50 μ molar deoxyuridine, 100 μmolar 5,10-methylene-tetrahydrofolate. The procedure:
The compounds of formula I are valuable anticancer agents. The tests employed indicate that compounds of formula I inhibit the enzyme thymidylate synthase. Thymidylate synthase catalyzes the methylation of deoxyuridine monophosphate to thymidine monophosphate and therefore plays a key role in the synthesis of the only nucleotide required exclusively for deoxyribonucleic acid (DNA) synthesis. […] Thus, the compounds of formula I were tested for their ability to inhibit thymidylate synthase. […] Inhibition of thymidylate synthetase by the new quinazoline antifolate CB3717: enzyme purification and kinetics. In: […]., Simmonds, H. A., Muller, M. M. (eds.) "Purine metabolism in man, IV part B. Biochemical, immunological and cancer research." Plenum Publishing Corp., New York, 1984, pp. 375-378. Thymidylate synthase enzyme activity was determined by the tritium release assay method described by Roberts, Biochemistry, 5:3546-3548 (1966).

The test system of data set [2] is L1210 murine leukemia cell line. Description: growth inhibition of L1210 murine leukemia cell line in vitro. The data set is classed as cell-based. Particulars: Mus musculus, L1210, 72 h. The procedure:
The compounds of formula I were also tested against the L1210 murine leukemia cell line in vitro.
A cell culture of the L1210 murine leukemia cell line is grown in RPMI 1640 culture medium supplemented with 5% fetal bovine serum containing gentamicin (50 micrograms per milliliter). Dilutions of the test compound are prepared in the appropriate solvent and 20 microliters of each dilution are added to a 24-well Linbro tissue culture plate, followed by the addition of 2.0 ml of cell suspension containing 3×10^4 cells/milliliter. Solvent and medium controls are included in each test.
After incubation at 37° C. for three days in 5% CO2, the contents of each well are removed and the cells are counted in a ZBI Coulter counter.

For data set [3], the system named is cells made resistant to the classical DHFR inhibitor methotrexate. As to conditions: cited from earlier work.
Another data set relates to TS. Particulars: cited from earlier work.
Data set [4] relates to ovarian and breast cancer. As to conditions: cited from earlier work.
For data set [5] the following is noted: cited from earlier work.

T1 sequence (P07607 whole entry): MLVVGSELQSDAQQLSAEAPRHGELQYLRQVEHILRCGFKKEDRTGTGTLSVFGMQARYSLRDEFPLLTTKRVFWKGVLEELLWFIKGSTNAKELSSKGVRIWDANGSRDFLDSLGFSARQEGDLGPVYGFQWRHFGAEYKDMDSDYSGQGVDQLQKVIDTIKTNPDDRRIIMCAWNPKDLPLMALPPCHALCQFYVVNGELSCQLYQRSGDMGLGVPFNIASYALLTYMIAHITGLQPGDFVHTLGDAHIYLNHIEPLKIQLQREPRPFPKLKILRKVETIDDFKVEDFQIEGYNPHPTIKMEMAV

For the compound `C#CCN(Cc1ccc2nc[nH]c(=O)c2c1)c1ccc(C(C)=O)cc1` [Example 2, 6-[[(4-Acetylphenyl)-2-propynylamino]methyl]-4(3H)-quinazolinone], the half-maximal inhibitory concentration (IC50) in data set [1] was 2.4 µM; in data set [2], 7 µM.
Consider `C#CCN(Cc1ccc2nc(N)[nH]c(=O)c2c1)c1ccc(C(N)=O)cc1` [Example 2d, 4-[[(2-Amino-3,4-dihydro-4-oxo-6-quinazolinyl)methyl]-2-propynylamino]benzamide], for which the IC50 was 0.64 µM in data set [1] and > 20 µM in data set [2].
As to `C#CCN(Cc1ccc2nc(N)[nH]c(=O)c2c1)c1ccc(C(=O)C(F)(F)F)cc1` [Example 2k, 2-Amino-6-[[2-propynyl[4-(trifluoroacetyl)phenyl]amino]methyl]-4(3H)-quinazolinone], the IC50 in data set [1] was 0.51 µM; in data set [2], 11.8 µM.
In the case of `C#CCN(Cc1ccc2nc[nH]c(=O)c2c1)c1ccc(Cl)c(Cl)c1` [Example 2a, 6-[[(3,4-Dichlorophenyl)-2-propynylamino]methyl]-4(3H)-quinazolinone], the IC50 in data set [1] is 11 µM; in data set [2], 4 µM.
As to `COc1cc(NCc2ccc3nc(N)nc(N)c3c2C)cc(OC)c1OC` [trimetrexate], the “circumvention of impaired transport resistance” value in data set [3] is given as “shown to circumvent the impaired transport”.
With `C#CCN(Cc1ccc2nc(N)[nH]c(=O)c2c1)c1ccc(C#N)cc1` [Example 2e, 4-[[(2-Amino-3,4-dihydro-4-oxo-6-quinazolinyl)methyl]-2-propynylamino]benzonitrile], the IC50 in data set [1] is 1.3 µM; in data set [2] it was 5.9 µM.
For `C#CCN(Cc1ccc2nc[nH]c(=O)c2c1)c1cc(OC)c(OC)c(OC)c1` [Example 2c, 6-[[2-Propynyl-(3,4,5-trimethoxyphenyl)amino]methyl]-4(3H)-quinazolinone], in that order: 96 µM and > 10 µM.
In data set [1], `C#CCN(Cc1ccc2nc(N)[nH]c(=O)c2c1)c1ccc(F)cc1` [Example 2f, 2-Amino-6-[[(4-fluorophenyl)-2-propynylamino]methyl]-4(3H)-quinazolinone] displayed an IC50 of 11.5 µM.
Consider `C#CCN(Cc1ccc2nc(N)[nH]c(=O)c2c1)c1ccc(S(=O)(=O)N(C)C)cc1` [Example 2n, 4-[[(2-Amino-3,4-dihydro-4-oxo-6-quinazolinyl)methyl]-2-propynylamino]-N,N-dimethylbenzenesulfonamide], for which the IC50 was found to be 1 µM in data set [1] and 4.1 µM in data set [2].
The corresponding values for `C#CCN(Cc1ccc2nc(N)nc(O)c2c1)c1ccc(Cl)c(Cl)c1` [Example 2g, 2-Amino-6-[[(3,4-Dichlorophenyl)-2-propynylamino]methyl]-4(3H)-quinazolinone] are 5 µM and 12.6 µM.
As for `C#CCN(Cc1ccc2nc(N)nc(O)c2c1)c1ccc(C(=O)N[C@@H](CCC(=O)O)C(=O)O)cc1` [CB 3717, N-(4(N-((2-amino-4-hydroxy-6-quinazolinyl)methyl)prop-2-ynylamino)benzoyl)-L-glutamic acid], the “TS inhibition (in words)” value with TS (background) was “selective, tight binding TS inhibitor”. Moreover, in data set [4] (Phase I clinical trials), the liver toxicity result is “nondose related liver toxicity”. The kidney toxicity entry in data set [4] (Phase I clinical trials, due in part to poor solubility) is on record as “dose limiting kidney toxicity”. For the same compound, the clinical responses entry in data set [4] (Phase I, patients with ovarian and breast cancer) was “Minor and partial clinical responses”. In data set [5], the solubility entry was “poor solubility”.
`C#CCN(Cc1ccc2nc(N)[nH]c(=O)c2c1)c1ccc(OC(F)(F)F)cc1` [Example 2h, 2-Amino-6-[[2-propynyl[4-(trifluoromethoxy)phenyl]amino]methyl]-4(3H)-quinazolinone]: the figures for the IC50 in data set [1] and in data set [2] were 11.3 µM and 25.1 µM, respectively.
For `C#CCN(Cc1ccc2nc(N)nc(O)c2c1)c1cc(OC)c(OC)c(OC)c1` [Example 2l, 2-Amino-6-[[2-propynyl(3,4,5-trimethoxyphenyl)amino]methyl]-4(3H)-quinazolinone], in that order: 50 µM and > 20 µM.
With `C#CCN(Cc1ccc2nc(N)[nH]c(=O)c2c1)c1ccc(C(=O)O)cc1` [formula A; R=OH], the “decrease of TS inhibition over the classical antifolate analog on removal of the glutamate residue” value in the data set with TS (Jones et al, J. Med. Chem. 29, 1114-1118 (1986)) is on record as 84 fold.
For `C#CCN(Cc1ccc2nc(N)[nH]c(=O)c2c1)c1ccc(C(C)=O)cc1` [Example 2j, 6-[[(4-Acetylphenyl)-2-propynylamino]methyl]-2-amino-4(3H)-quinazolinone], the figures for the IC50 in data set [1] and in data set [2] were 0.77 µM and 4.3 µM, respectively.
On to `C#CCN(Cc1ccc2nc(N)[nH]c(=O)c2c1)c1ccc([N+](=O)[O-])cc1` [Example 2i, 2-Amino-6-[[(4-nitrophenyl)-2-propynylamino]methyl]-4(3H)-quinazolinone], for which the figures for the IC50 in data set [1] and in data set [2] were 0.62 µM and 2.4 µM, respectively.

What is called IC50 is the concentration that gives 50% inhibition. Low readings indicate higher potency, high ones lower potency.
